Reference: ChEMBL document CHEMBL3758098, “3-(Dipropylamino)-5-hydroxybenzofuro[2,3-f]quinazolin-1(2H)-one (DPA-HBFQ-1) plays an inhibitory role on breast cancer cell growth and progression” (Eur J Med Chem, 2016)
Active and inactive are the calls of the source. The calls are words filed in the database; no cut-off is given here.

Assays:
[1] = tested on: MCF7; experiment: Cytotoxicity against human MCF7 cells assessed as growth inhibition at 1 uM after 5 days by MTT assay relative to vehicle-treated control; type: functional; conditions: MCF7, 120 h, read-out: GI
[2] = tested on: MDA-MB-231; experiment: Cytotoxicity against human MDA-MB-231 cells assessed as growth inhibition at 1 uM after 5 days by MTT assay relative to vehicle-treated control; type: functional
[3] = Cytotoxicity against human MCF10A cells assessed as growth inhibition at 1 uM after 5 days by MTT assay relative to vehicle-treated control; type: cell-based; conditions: mcf-10a, 120 h

| Compound | inhibition of growth at 1 µM [1] [%] | growth inhibition (GI) [2] | Activity [3] |
| --- | --- | --- | --- |
| CCCCN(CCCC)c1nc2ccc3c4ccccc4oc3c2c(=O)[nH]1 | 15 | Active | Non-toxic |
| CCCN(CCC)c1nc2ccc3c4ccccc4oc3c2c(=O)[nH]1 | 25 | Active | Non-toxic |
| CCCCN(CCCC)c1nc2c(OC)cc3c4ccccc4oc3c2c(=O)[nH]1 | 25 | Active | Non-toxic |
| CCN(CC)c1nc2ccc3c4ccccc4oc3c2c(=O)[nH]1 | 10 | Active | Non-toxic |
